Measured values taken from patent publication US5545719A, “Nerve growth peptides” (Neuromedica, Inc., priority 1994, dated 1996).
Peptide text beside a SMILES is read from it.

Experiments:
[1] = Solubility observations; format: physicochemical; conditions: physiological pH values
[2] = test system: NB2a/d1 cells; assay: Neurite sprouting assay (RSE), NB2a/d1 cells; format: cell-based, mouse; conditions: 24 hrs in culture
Procedure: (§1) Two cell lines were used. The mouse neuroblastoma cell line NB2a/dl was grown to confluency in P/100 plastic plates in the presence of Delbecco's medium with 10% fetal calf serum at 36.5° C. in a 5% CO2 atmosphere. Shea, T. B. et al., Dev. Brain Res., 21:307-314 (1985). An adrenergic mouse cell line based on PC12 pheochromocytoma cells was grown on collagen-coated culture plates using 85% RPMI 1640 and 10% heat-inactivated horse serum as the growth medium. Greene, L. A. et al., Proc. Natl. Acad. Sci. USA, 73:2424-2428 (1976). Cultures were grown in P-100 plates from an initial plating of 10^5 cells/ml under sterile conditions using 10 ml of incubation medium. Experimental cultures received a given concentration of protein fragment in 1 ml of serum-free medium. Control cultures received no fragment. Equal numbers of test and control plates were incubated at 35.5° C. in a 95%/5% air/CO2 humified atmosphere, and then examined for neurite growth patterns at 18, 24 and 48 hr after the plating in a phase microscope at a magnification of 100 or 200 ×, as specified.
The test to determine the degree of sprouting was carried out blind to determine (1) the total number of cells present in a given field of observation and (2) the percent of these that have zero and one or two or more process. Twelve microscope fields, each containing 50-100 cells, were randomly selected in each plate and cells counted according to the categories described above. The data for 12 fields in each of two plates for each added protein fragment were combined to obtain an analysis of the percent sprouting (i.e. the % of cells that have one or more processes after 24 hr in culture) for each protein fragment. The ratio, % sprouting in experimental cultures/% sprouting in control cultures, is an index of the "relative sprouting effect" (RSE) of a protein fragment.

[3] = test system: NB2a/dl cells; assay: Neurite elongation assay (REE), NB2a/dl cells; format: cell-based, mouse; conditions: Conc. 1000 μM, 24 hrs in culture
Procedure: as §1, with “Equal numbers of test and control plates were incubated at 35.5° C. in a 95%/5% air/CO2 humified atmosphere, and then examined for neurite growth patterns at 18, 24 and 48 hr after the plating in a phase microscope at a magnification of 100 or 200 ×, as specified.” left out
(§2) In each of the twelve microscope fields, the length of nerve cell processes (minimum length: 0.5 times the cell body length) was also measured to determine the percentage of nerve elongation after 24 hr. The percentage of total cells that developed a longest process equal to its cell body length was calculated according to the formula in Table V, supra. […]

[4] = test system: PC12 cells; assay: Neurite elongation assay (REE), PC12 cells; format: cell-based, mouse
Procedure: as §1, with “Equal numbers of test and control plates were incubated at 35.5° C. in a 95%/5% air/CO2 humified atmosphere, and then examined for neurite growth patterns at 18, 24 and 48 hr after the plating in a phase microscope at a magnification of 100 or 200 ×, as specified.” left out
as §2

[5] = test system: PC12 cells; assay: Neurite sprouting assay (RSE), PC12 cells; format: cell-based, mouse; conditions: Conc. .07 μM, 24 hrs in culture
Procedure: as §1, with “Equal numbers of test and control plates were incubated at 35.5° C. in a 95%/5% air/CO2 humified atmosphere, and then examined for neurite growth patterns at 18, 24 and 48 hr after the plating in a phase microscope at a magnification of 100 or 200 ×, as specified.” left out
The test to determine the degree of sprouting was carried out blind to determine (1) the total number of cells present in a given field of observation and (2) the percent of these that have zero and one or two or more process. Twelve microscope fields, each containing 50-100 cells, were randomly selected in each plate and cells counted according to the categories described above. […]

For CC(C)C[C@H](NC(=O)[C@@H](NC(=O)[C@H](CCC(=O)O)NC(=O)[C@H](CCCCN)NC(=O)[C@@H](N)CCCCN)[C@@H](C)O)C(=O)N[C@@H](CCC(N)=O)C(=O)N[C@@H](Cc1ccccc1)C(=O)N[C@@H](CCCNC(=N)N)C(=O)O [compound 8933, Lys Lys Glu Thr Leu Gln Phe Arg] (H-KKETLQFR-OH), the solubility in saline [1] was “highly soluble”.

In the case of CCCC(=O)Nc1ncnc2c1ncn2[C@@H]1O[C@@H]2COP(=O)(O)O[C@H]2[C@H]1OC(=O)CCC [dibutyryl cyclic AMP, reference compound], the “RSE (relative sprouting effect)” value ([2]; Conc. 1000 (μm)) is reported as 1.7 and the “REE (neurite elongation)” value [3] is reported as 2.58.

For Nerve growth factor, the “RSE (relative sprouting effect)” value ([2]; Conc. 0.03 (μm)) was 1.76 ± .034, the “RSE (relative sprouting effect)” value ([2]; Conc. .07 (μm)) was 1.76 ± .07 and the “REE (neurite elongation)” value ([4]; Conc. .03 μM, 24 hrs in culture) was 3.30. For the same molecule, the “effect on neurite elongation, result in words” value ([4]; Table IV) was “most significant effects” and the “RSE (relative sprouting effect)” value [5] was 2.9.
